# Source: patent publication US11912682B2, “Isoindolinone compounds” (Monte Rosa Therapeutics, Inc., priority 2021, dated 2024)
# Tests used:
# [1] = target: T1, GSPT1 (Homo sapiens (Human), UniProt P15170+Q96SW2); experiment: immunofluorescence assay for GSPT1 degradation in CAL-51 cells (Example 4); type: cell-based
# Outline: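 CAL-51 cells on fibronectin-coated plates were treated 6 h with serial dilutions (30 μM to 0.1 nM), then fixed and immunostained for GSPT1 with DAPI and phalloidin counterstains. Per-cell mean GSPT1 intensity from high-content imaging, normalized to controls; DC50 by non-linear regression.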
# [2] = target: Full length wild-type cereblon CRBN (Homo sapiens (Human), UniProt Q96SW2); experiment: fluorescence polarization (FP) assay, cereblon binding; conditions: read-out: rFP IC50
# Sequence of Full length wild-type cereblon CRBN (Q96SW2 whole entry): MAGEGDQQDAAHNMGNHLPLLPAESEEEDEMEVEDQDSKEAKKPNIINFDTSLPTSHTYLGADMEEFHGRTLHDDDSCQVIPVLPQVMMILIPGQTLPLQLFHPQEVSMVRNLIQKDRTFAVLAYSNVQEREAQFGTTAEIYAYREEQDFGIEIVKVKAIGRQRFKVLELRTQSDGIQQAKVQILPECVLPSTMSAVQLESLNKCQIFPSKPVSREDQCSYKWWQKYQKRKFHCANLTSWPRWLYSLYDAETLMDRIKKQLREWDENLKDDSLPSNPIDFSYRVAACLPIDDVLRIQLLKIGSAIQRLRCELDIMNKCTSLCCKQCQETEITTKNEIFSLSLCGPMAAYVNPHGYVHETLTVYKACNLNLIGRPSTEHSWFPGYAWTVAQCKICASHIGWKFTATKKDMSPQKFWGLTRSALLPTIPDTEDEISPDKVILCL
# Outline: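 Full-length wild-type CRBN (80.0 nM as dispensed) preincubated 30 min at room temperature with compound in HEPES pH 8.0, NaCl, TCEP, 0.05% Tween 20.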
# [3] = target: T1, GSPT1; experiment: immunofluorescence assay for GSPT1 degradation in CAL-51 cells (Example 10); type: cell-based; conditions: read-out: IF Class (GSPT1 degradation DC50)
# Experimental: The representative compounds were tested in an immunofluorescence assay for their activity to degrade GSPT1. […] Compounds were stored at 10 mM DMSO stocks. […] Cells were subsequently rinsed with PBS and fixed in 10% Formalin solution (50 μl, Sigma HT5011)) for 20 mins at room temperature. […] Following three further PBS washes, 50 μL blocking buffer (1% BSA, Sigma A4503, in PBS) was added for 45 min for signal-to noise reduction. Primary antibody (human GSPT1, Sigma HPA052488) was diluted in blocking buffer (dil.1/300, 35 μL/well) and incubated with the cells overnight at 4° C. […] After three final PBS washes, samples were conserved in 100 μL PBS in the dark, until measurement. Image acquisition was performed on the Operetta High-Content Imager (Perkin-Elmer). […] For the determination of GSPT1 DC50 values, a custom algorithm implemented in the PerkinElmer image analysis software Harmony-Acapella® was developed. After user-defined setting of adjustment parameters, the analysis was run identically without human intervention for all image fields. DAPI staining of the nuclei was used to determine the location of cells using standard nuclei detection modules. Segmentation artifacts were removed by threshold-based filters for area, roundness and intensity. The outline of the cells was determined analogously from the sum of the normalized, smoothed DAPI and Actin channel, starting from each nucleus. […] GSPT1 degradation (DC50) was calculated after normalization to controls and data import in CDD vault Database, using non-linear regression.
# [4] = 6 hours, read-out: Activity for GSPT1 degradation, Code (DC50)
# [5] = GSPT1 degradation, read-out: DC50 value
# T1 sequence (P15170 whole entry): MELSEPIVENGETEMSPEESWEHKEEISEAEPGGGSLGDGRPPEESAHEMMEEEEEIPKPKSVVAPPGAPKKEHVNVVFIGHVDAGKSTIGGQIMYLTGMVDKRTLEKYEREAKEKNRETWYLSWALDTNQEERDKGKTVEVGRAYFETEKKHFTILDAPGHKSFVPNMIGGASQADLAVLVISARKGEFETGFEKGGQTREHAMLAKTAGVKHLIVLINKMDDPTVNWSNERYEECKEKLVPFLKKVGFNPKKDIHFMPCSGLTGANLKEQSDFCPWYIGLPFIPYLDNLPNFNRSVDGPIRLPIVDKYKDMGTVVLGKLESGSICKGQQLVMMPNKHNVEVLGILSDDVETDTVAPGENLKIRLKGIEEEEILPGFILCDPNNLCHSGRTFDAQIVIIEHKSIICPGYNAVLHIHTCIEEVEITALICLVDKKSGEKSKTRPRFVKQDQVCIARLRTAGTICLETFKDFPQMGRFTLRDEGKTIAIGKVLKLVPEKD
# T1 sequence (Q96SW2 whole entry): as the sequence (Q96SW2 whole entry) above
# T1 sequence (Q16531 2-1140 partner): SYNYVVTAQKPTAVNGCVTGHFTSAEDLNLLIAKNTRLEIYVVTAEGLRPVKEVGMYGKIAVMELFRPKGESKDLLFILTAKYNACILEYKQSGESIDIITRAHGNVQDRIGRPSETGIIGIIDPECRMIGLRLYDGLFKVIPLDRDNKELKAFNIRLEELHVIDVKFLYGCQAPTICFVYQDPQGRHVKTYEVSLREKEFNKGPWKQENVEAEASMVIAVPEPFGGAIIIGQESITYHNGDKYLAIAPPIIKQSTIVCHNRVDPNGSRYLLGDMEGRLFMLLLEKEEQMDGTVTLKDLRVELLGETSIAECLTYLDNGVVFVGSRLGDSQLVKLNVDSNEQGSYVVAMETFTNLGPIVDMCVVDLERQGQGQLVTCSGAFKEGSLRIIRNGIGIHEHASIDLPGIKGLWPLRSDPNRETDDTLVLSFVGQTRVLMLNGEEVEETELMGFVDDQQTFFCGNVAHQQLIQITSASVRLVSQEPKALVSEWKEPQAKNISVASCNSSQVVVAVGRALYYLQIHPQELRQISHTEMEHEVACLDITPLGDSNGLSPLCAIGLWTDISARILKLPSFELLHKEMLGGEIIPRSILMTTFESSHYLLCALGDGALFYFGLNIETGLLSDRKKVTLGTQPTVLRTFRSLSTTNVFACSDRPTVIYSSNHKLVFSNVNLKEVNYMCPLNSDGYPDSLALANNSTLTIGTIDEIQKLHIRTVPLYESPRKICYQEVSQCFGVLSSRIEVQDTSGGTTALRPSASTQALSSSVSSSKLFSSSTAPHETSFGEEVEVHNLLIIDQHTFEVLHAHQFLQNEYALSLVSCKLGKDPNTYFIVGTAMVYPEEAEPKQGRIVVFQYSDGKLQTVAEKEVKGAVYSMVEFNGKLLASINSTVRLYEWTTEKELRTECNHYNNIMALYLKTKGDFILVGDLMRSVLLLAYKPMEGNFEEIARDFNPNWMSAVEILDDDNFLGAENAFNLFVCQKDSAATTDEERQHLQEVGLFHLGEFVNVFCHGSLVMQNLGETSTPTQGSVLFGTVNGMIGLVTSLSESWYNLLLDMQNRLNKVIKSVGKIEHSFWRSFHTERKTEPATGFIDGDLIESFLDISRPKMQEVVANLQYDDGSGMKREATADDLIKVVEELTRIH
Structure (SMILES),"DC50 ([3]; CAL-51 cells, 6 h) [nM]",other results
"O=C1CCC(N2Cc3ccc(COC(=O)Nc4cc(-c5ccccc5)ccn4)cc3C2=O)C(=O)N1 (stereo not drawn) [Compound 155, (2-(2,6-dioxopiperidin-3-yl)-3-oxoisoindolin-5-yl)methyl (4-phenylpyridin-2-yl)carbamate]",,"DC50 [1, 4]: 30 to 300 nM; IC50 [2]: > 1700 nM"
"C[C@H]1CCCN1c1ccc(NC(=O)OCc2ccc3c(c2)C(=O)N(C2CCC(=O)NC2=O)C3)cn1 (stereo partly drawn) [Compound 156, (2-(2,6-dioxopiperidin-3-yl)-3-oxoisoindolin-5-yl)methyl (6-((S)-2-methylpyrrolidin-1-yl)pyridin-3-yl)carbamate]",,"DC50 [1, 4]: < 30 nM; DC50 [1, 5]: ≤ 30 nM; IC50 [2]: < 500 nM"
C[C@@H]1CCCN1c1ccc(NC(=O)OCc2ccc3c(c2)C(=O)N(C2CCC(=O)NC2=O)C3)cn1 (stereo partly drawn) [Compound 157],,"DC50 [1, 4]: < 30 nM; DC50 [1, 5]: ≤ 30 nM; IC50 [2]: < 500 nM"
"O=C1CCC(N2Cc3ccc(COC(=O)Nc4cc(Cl)ccc4F)cc3C2=O)C(=O)N1 (stereo not drawn) [Compound 163, (2-(2,6-dioxopiperidin-3-yl)-3-oxoisoindolin-5-yl)methyl (5-chloro-2-fluorophenyl)carbamate]",> 300,
"O=C1CCC(N2Cc3ccc(COC(=O)Nc4ccc(C5CCC5)cc4F)cc3C2=O)C(=O)N1 (stereo not drawn) [Compound 164, (2-(2,6-dioxopiperidin-3-yl)-3-oxoisoindolin-5-yl)methyl (4-cyclobutyl-2-fluorophenyl)carbamate]",> 300,
"Cc1cc(F)c(NC(=O)OCc2ccc3c(c2)C(=O)N(C2CCC(=O)NC2=O)C3)c(F)c1 (stereo not drawn) [Compound 166, (2-(2,6-dioxopiperidin-3-yl)-3-oxoisoindolin-5-yl)methyl (2,6-difluoro-4-methylphenyl)carbamate]",> 300,
O=C1CCC(N2Cc3ccc(COC(=O)NC4CN(c5ccccc5)C4)cc3C2=O)C(=O)N1 (stereo not drawn) [Compound 167],> 300,
O=C1CCC(N2Cc3ccc(COC(=O)NC4CN(Cc5ccccc5)C4)cc3C2=O)C(=O)N1 (stereo not drawn) [Compound 168],> 300,
O=C1CCC(N2Cc3ccc(COC(=O)Nc4cccc(OC(F)(F)F)c4F)cc3C2=O)C(=O)N1 (stereo not drawn) [Compound 169],30 to 300,
"CC(C)(C)c1cccc(NC(=O)OCc2ccc3c(c2)C(=O)N(C2CCC(=O)NC2=O)C3)n1 (stereo not drawn) [Compound 170, (2-(2,6-dioxopiperidin-3-yl)-3-oxoisoindolin-5-yl)methyl (6-(tert-butyl)pyridin-2-yl)carbamate]",30 to 300,
O=C1CCC(N2Cc3ccc(COC(=O)Nc4cccc5c4OCC5)cc3C2=O)C(=O)N1 (stereo not drawn) [Compound 173],> 300,
"O=C1CCC(N2Cc3ccc(COC(=O)NC45CC(c6ccccc6F)(C4)C5)cc3C2=O)C(=O)N1 (stereo not drawn) [Compound 174, (2-(2,6-dioxopiperidin-3-yl)-3-oxoisoindolin-5-yl)methyl (3-(2-fluorophenyl)bicyclo[1.1.1]pentan-1-yl) carbamate]",< 30,
"Cc1cc(NC(=O)OCc2ccc3c(c2)C(=O)N(C2CCC(=O)NC2=O)C3)cc(Cl)c1C#N (stereo not drawn) [Compound 177, (2-(2,6-diox opiperidin-3-yl)-3-oxoisoindolin-5-yl)methyl(3-chloro-4-cyano-5-methylphenyl)carbamate]",,DC50 [3]: 30 to 300 nM
Cc1cc2c(c(NC(=O)OCc3ccc4c(c3)C(=O)N(C3CCC(=O)NC3=O)C4)c1)OCC2 (stereo not drawn) [Compound 182],> 300,
Cc1cc(NC(=O)OCc2ccc3c(c2)C(=O)N(C2CCC(=O)NC2=O)C3)cc(C#N)c1C (stereo not drawn) [Compound 186],< 30,
O=C1CCC(N2Cc3ccc(COC(=O)Nc4cc(Cl)cc5c4OCC5)cc3C2=O)C(=O)N1 (stereo not drawn) [Compound 189],30 to 300,
O=C1CCC(N2Cc3ccc(COC(=O)NC45CC(F)(C4)C5)cc3C2=O)C(=O)N1 (stereo not drawn) [Compound 190],> 300,
C[C@@H]1CCCN1c1ccc(NC(=O)OCc2ccc3c(c2)C(=O)N(C2CCC(=O)NC2=O)C3)nc1 (stereo partly drawn) [Compound 192],30 to 300,
O=C1CCC(N2Cc3ccc(COC(=O)NC45CC(N6CCCCC6)(C4)C5)cc3C2=O)C(=O)N1 (stereo not drawn) [Compound 198],> 300,

# Now from value to molecule, other results behind:
"DC50 ([3]; CAL-51 cells, 6 h) [nM]",Structure (SMILES),other results
< 30,"Cc1ccc(NC(=O)OCc2ccc3c(c2)C(=O)N(C2CCC(=O)NC2=O)C3)c(F)c1Cl (stereo not drawn) [Compound 179, (2-(2,6-dioxopiperidin-3-yl)-3-oxoisoindolin-5-yl) methyl (3-chloro-2-fluoro-4-methylphenyl)carbamate]",
30 to 300,"Cc1ccc(NC(=O)OCc2ccc3c(c2)C(=O)N(C2CCC(=O)NC2=O)C3)nc1Cl (stereo not drawn) [Compound 183, (2-(2,6-dioxopiperidin-3-yl)-3-oxoisoindolin-5-yl)methyl (6-chloro-5-methylpyridin-2-yl)carbamate]",
> 300,"CC(C)(C)[C@H]1C[C@@H](NC(=O)OCc2ccc3c(c2)C(=O)N(C2CCC(=O)NC2=O)C3)C1 (stereo partly drawn) [Compound 184, cis-(2-(2,6-dioxopiperidin-3-yl)-3-oxoisoindolin-5-yl)methyl ((1s,3s)-3-(tert-butyl)cyclobutyl)carbamate]",
> 300,"CC(C)(C)[C@H]1C[C@H](NC(=O)OCc2ccc3c(c2)C(=O)N(C2CCC(=O)NC2=O)C3)C1 (stereo partly drawn) [Compound 185, trans-(2-(2,6-dioxopiperidin-3-yl)-3-oxoisoindolin-5-yl)methyl ((1s,3s)-3-(tert-butyl)cyclobutyl)carbamate]",
30 to 300,"O=C1CCC(N2Cc3ccc(COC(=O)Nc4ccc(F)c(OC(F)F)c4F)cc3C2=O)C(=O)N1 (stereo not drawn) [Compound 191, (2-(2,6-dioxopiperidin-3-yl)-3-oxoisoindolin-5-yl)methyl (3-(difluoromethoxy)-2,4-difluorophenyl) carbamate]",
> 300,"O=C1CCC(N2Cc3ccc(COC(=O)NC45CC(C4)C5)cc3C2=O)C(=O)N1 (stereo not drawn) [Compound 193, (2-(2,6-dioxopiperidin-3-yl)-3-oxoisoindolin-5-yl)methyl bicyclo[1.1.1]pentan-1-ylcarbamate]",
> 300,"Cc1cc(NC(=O)OCc2ccc3c(c2)C(=O)N(C2CCC(=O)NC2=O)C3)ncc1N1CCCC1 (stereo not drawn) [Compound 194, (2-(2,6-dioxopiperidin-3-yl)-3-oxoisoindolin-5-yl)methyl (4-methyl-5-(pyrrolidin-1-yl)pyridin-2-yl) carbamate]",
> 300,"CC(C)(O)c1ccc(NC(=O)OCc2ccc3c(c2)C(=O)N(C2CCC(=O)NC2=O)C3)cc1 (stereo not drawn) [Compound 195, (2-(2,6-dioxopiperidin-3-yl)-3-oxoisoindolin-5-yl)methyl (4-(2-hydroxypropan-2-yl)phenyl)carbamate]",
30 to 300,"Cc1cc(F)c(NC(=O)OCc2ccc3c(c2)C(=O)N(C2CCC(=O)NC2=O)C3)cc1Br (stereo not drawn) [Compound 197, (2-(2,6-dioxopiperidin-3-yl)-3-oxoisoindolin-5-yl)methyl (5-bromo-2-fluoro-4-methylphenyl)carbamate]",
> 300,"CC(C)(O)c1ccc(NC(=O)OCc2ccc3c(c2)C(=O)N(C2CCC(=O)NC2=O)C3)cn1 (stereo not drawn) [Compound 199, (2-(2,6-dioxopiperidin-3-yl)-3-oxoisoindolin-5-yl)methyl (6-(2-hydroxypropan-2-yl)pyridin-3-yl)carbamate]",
30 to 300,"O=C1CCC(N2Cc3ccc(COC(=O)Nc4cc(OC(F)(F)F)c(F)cc4F)cc3C2=O)C(=O)N1 (stereo not drawn) [Compound 200, (2-(2,6-dioxopiperidin-3-yl)-3-oxoisoindolin-5-yl)methyl (2,4-difluoro-5-(trifluoromethoxy)phenyl)carbamate]",
30 to 300,"Cc1cc(F)c(NC(=O)OCc2ccc3c(c2)C(=O)N(C2CCC(=O)NC2=O)C3)cc1OC(F)F (stereo not drawn) [Compound 201, (2-(2,6-dioxopiperidin-3-yl)-3-oxoisoindolin-5-yl) methyl (5-(difluoromethoxy)-2-fluoro-4-methylphenyl)carbamate]",
> 300,"O=C1CCC(N2Cc3ccc(COC(=O)NC45CC(CF)(C4)C5)cc3C2=O)C(=O)N1 (stereo not drawn) [Compound 202, (2-(2,6-dioxopiperidin-3-yl)-3-oxoisoindolin-5-yl)methyl (3-(fluoromethyl)bicyclo[1.1.1]pentan-1-yl) carbamate]",
> 300,"COC(=O)C12CC(NC(=O)OCc3ccc4c(c3)C(=O)N(C3CCC(=O)NC3=O)C4)(C1)C2 (stereo not drawn) [Compound 203, methyl 3-((((2-(2,6-dioxopiperidin-3-yl)-3-oxoisoindolin-5-yl)methoxy)carbonyl)amino)bicyclo[1.1.1]pentane-1-carboxylate]",
30 to 300,"Cc1cc(F)c(NC(=O)OCc2ccc3c(c2)C(=O)N(C2CCC(=O)NC2=O)C3)cc1OC(F)(F)F (stereo not drawn) [Compound 204, (2-(2,6-dioxopiperidin-3-yl)-3-oxoisoindolin-5-yl) methyl (2-fluoro-4-methyl-5-(trifluoromethoxy)phenyl)carbamate]",
